Test results published in article PMC10866072, “Design, synthesis, molecular modelling and biological evaluation of novel 6-amino-5-cyano-2-thiopyrimidine derivatives as potent anticancer agents against leukemia and apoptotic inducers” (Journal of Enzyme Inhibition and Medicinal Chemistry, 2024).

Assays:
SR = assay type: cell-based; conditions: one dose 10^-5 M, 48 h
KM12 = assay type: cell-based; conditions: one dose 10^-5 M, 48 h
SN12C = assay type: cell-based, human; conditions: one dose 10^-5 M, 48 h
OVCAR-4 = assay type: cell-based; conditions: one dose 10^-5 M, 48 h
OVCAR-5 = assay type: cell-based; conditions: one dose 10^-5 M, 48 h
SK-MEL-2 = assay type: cell-based; conditions: one dose 10^-5 M, 48 h
MDA-MB-231/ATCC = assay type: cell-based; conditions: one dose 10^-5 M, 48 h
RXF 393 = assay type: cell-based; conditions: one dose 10^-5 M, 48 h
HOP-62 = assay type: cell-based; conditions: one dose 10^-5 M, 48 h
A549/ATCC = assay type: cell-based; conditions: one dose 10^-5 M, 48 h
M14 = assay type: cell-based; conditions: one dose 10^-5 M, 48 h
TK-10 = assay type: cell-based; conditions: one dose 10^-5 M, 48 h
NCI-H522 = assay type: cell-based; conditions: one dose 10^-5 M, 48 h
HCC-2998 = assay type: cell-based; conditions: one dose 10^-5 M, 48 h
SNB-75 = assay type: cell-based; conditions: one dose 10^-5 M, 48 h
UACC-257 = assay type: cell-based; conditions: one dose 10^-5 M, 48 h
SW-620 = assay type: cell-based; conditions: one dose 10^-5 M, 48 h
HS 578T = assay type: cell-based; conditions: one dose 10^-5 M, 48 h, HS 578T
NCI-H23 = assay type: cell-based; conditions: one dose 10^-5 M, 48 h
K-562 = assay type: cell-based; conditions: 48 h
MALME-3M = assay type: cell-based; conditions: one dose 10^-5 M, 48 h
T-47D = assay type: cell-based; conditions: one dose 10^-5 M, 48 h
[1] = tested on: full NCI 60 cell lines panel; conditions: for activity on all 60 cancer cell lines tested (in words): one dose
U251 = assay type: cell-based; conditions: 48 h
SF-539 = assay type: cell-based; conditions: one dose 10^-5 M, 48 h
MCF7 = assay type: cell-based; conditions: one dose 10^-5 M, 48 h
HCT-15 = assay type: cell-based; conditions: one dose 10^-5 M, 48 h
SK-MEL-5 = assay type: cell-based; conditions: one dose 10^-5 M, 48 h
NCI-H226 = assay type: cell-based; conditions: one dose 10^-5 M, 48 h
A498 = assay type: cell-based; conditions: one dose 10^-5 M, 48 h
SF-268 = assay type: cell-based; conditions: one dose 10^-5 M, 48 h
SF-295 = assay type: cell-based; conditions: one dose 10^-5 M, 48 h
SK-OV-3 = assay type: cell-based; conditions: one dose 10^-5 M, 48 h
EKVX = assay type: cell-based; conditions: one dose 10^-5 M, 48 h
MDA-MB-468 = assay type: cell-based; conditions: one dose 10^-5 M, 48 h
HL-60(TB) = assay type: cell-based; conditions: one dose 10^-5 M, 48 h
HT29 = assay type: cell-based; conditions: 48 h
MDA-MB-435 = assay type: cell-based; conditions: one dose 10^-5 M, 48 h
786-0 = assay type: cell-based; conditions: one dose 10^-5 M, 48 h
OVCAR-3 = assay type: cell-based; conditions: one dose 10^-5 M, 48 h
UO-31 = assay type: cell-based; conditions: one dose 10^-5 M, 48 h
LOX IMVI = assay type: cell-based; conditions: one dose 10^-5 M, 48 h
IGROV1 = assay type: cell-based; conditions: 48 h
PC-3 = assay type: cell-based; conditions: one dose 10^-5 M, 48 h
OVCAR-8 = assay type: cell-based; conditions: one dose 10^-5 M, 48 h
ACHN = assay type: cell-based; conditions: one dose 10^-5 M, 48 h
HOP-92 = assay type: cell-based; conditions: one dose 10^-5 M, 48 h
MOLT-4 = assay type: cell-based; conditions: one dose 10^-5 M, 48 h
RPMI-8226 = assay type: cell-based; conditions: one dose 10^-5 M, 48 h
CAKI-1 = assay type: cell-based; conditions: one dose 10^-5 M, 48 h
DU-145 = assay type: cell-based; conditions: one dose 10^-5 M, 48 h
CCRF-CEM = assay type: cell-based; conditions: one dose 10^-5 M, 48 h
SK-MEL-28 = assay type: cell-based; conditions: one dose 10^-5 M, 48 h
HCT-116 = assay type: cell-based; conditions: one dose 10^-5 M, 48 h
NCI-H460 = assay type: cell-based; conditions: one dose 10^-5 M, 48 h
SNB-19 = assay type: cell-based; conditions: one dose 10^-5 M, 48 h
UACC-62 = assay type: cell-based; conditions: one dose 10^-5 M, 48 h
[2] = Homo sapiens, read-out: % growth

COc1ccc(C=NNC(=N)c2c(N)nc(S)nc2-c2ccc(Cl)cc2)cc1 [Compound 4j, 4-amino-6–(4-chlorophenyl)-2-mercapto-N'-[(4-methoxyphenyl)methylene] pyrimidine-5-carboximidohydrazide]
percent cell growth at 10 µM (SR; Homo sapiens): 97.3%
% growth at 10 µM (KM12; Homo sapiens): 100%
% growth at 10 µM (SN12C; Homo sapiens): 93.6%
% growth at 10 µM (OVCAR-4; Homo sapiens): 99.6%
percent cell growth at 10 µM (OVCAR-5; Homo sapiens): 102%
% growth at 10 µM (SK-MEL-2; Homo sapiens): 110%
% growth at 10 µM (MDA-MB-231/ATCC; Homo sapiens): 91.3%
activity at 10 µM (RXF 393; Homo sapiens, RXF 393, 48 h, read-out: % growth): 124%
% growth at 10 µM (HOP-62; Homo sapiens): 90.3%
% growth at 10 µM (A549/ATCC; Homo sapiens): 107%
% growth at 10 µM (M14; Homo sapiens): 109%
% cell growth at 10 µM (TK-10; Homo sapiens): 143%
% growth at 10 µM (NCI-H522; Homo sapiens): 101%
% growth at 10 µM (HCC-2998; Homo sapiens): 113%
% growth at 10 µM (SNB-75; Homo sapiens): 103%
percent cell growth at 10 µM (UACC-257; Homo sapiens): 110%
% growth at 10 µM (SW-620; Homo sapiens): 112%
activity at 10 µM (HS 578T; [2]): 107%
activity at 10 µM (NCI-H23; [2]): 103%
% growth at 10 µM (K-562; Homo sapiens, K562, one dose 10^-5 M): 95%
% growth at 10 µM (MALME-3M; Homo sapiens): 105%
activity at 10 µM (T-47D; Homo sapiens, T47D, read-out: % growth): 86.8%
activity at 10 µM ([1]; Homo sapiens, 60 cell, 48 h, read-out: Mean % growth): 103%
activity on all 60 cancer cell lines tested (in words) [1]: weak activity
% growth at 10 µM (U251; Homo sapiens, U-251, one dose 10^-5 M): 107%
% growth at 10 µM (SF-539; Homo sapiens): 101%
activity at 10 µM (MCF7; [2]): 86.6%
activity at 10 µM (HCT-15; [2]): 95.6%
activity at 10 µM (SK-MEL-5; [2]): 102%
% growth at 10 µM (NCI-H226; Homo sapiens): 125%
% growth at 10 µM (A498; Homo sapiens): 125%
activity at 10 µM (SF-268; [2]): 113%
% cell growth at 10 µM (SF-295; Homo sapiens): 97.5%
% growth at 10 µM (SK-OV-3; Homo sapiens): 93.7%
% cell growth at 10 µM (EKVX; Homo sapiens): 94.8%
percent cell growth at 10 µM (MDA-MB-468; Homo sapiens): 114%
% growth at 10 µM (HL-60(TB); Homo sapiens): 111%
% growth at 10 µM (HT29; Homo sapiens, HT-29, one dose 10^-5 M): 105%
activity at 10 µM (MDA-MB-435; [2]): 104%
% growth at 10 µM (786-0; Homo sapiens): 104%
% growth at 10 µM (OVCAR-3; Homo sapiens): 110%
% cell growth at 10 µM (UO-31; Homo sapiens, UO-31, 48 h): 77.5%
activity at 10 µM (LOX IMVI; [2]): 104%
activity at 10 µM (IGROV1; Homo sapiens, IGROV-1, one dose 10^-5 M, read-out: % growth): 91.5%
percent cell growth at 10 µM (PC-3; Homo sapiens): 82.6%
% growth of cells at 10 µM (OVCAR-8; Homo sapiens): 101%
% growth at 10 µM (ACHN; Homo sapiens): 97.4%
% growth at 10 µM (HOP-92; Homo sapiens): 107%
activity at 10 µM (MOLT-4; [2]): 101%
% growth at 10 µM (RPMI-8226; Homo sapiens): 91.2%
% growth at 10 µM (CAKI-1; Homo sapiens, CAKI-1, 48 h): 91.9%
% growth at 10 µM (DU-145; Homo sapiens): 118%
% cell growth at 10 µM (CCRF-CEM; Homo sapiens): 89.7%
% cell growth at 10 µM (SK-MEL-28; Homo sapiens): 111%
activity at 10 µM (HCT-116; [2]): 107%
activity at 10 µM (NCI-H460; [2]): 119%
activity at 10 µM (SNB-19; [2]): 90.5%
% growth at 10 µM (UACC-62; Homo sapiens): 92.9%

3-Amino-4–(4-chlorophenyl)-1H-pyrazolo[3,4-d] pyrimidine-6-thiol [Compound 3b]
% growth (SR): 91.21%
% growth (KM12): 100.80%
% growth (SN12C): 97.55%
% growth (OVCAR-4): 98.54%
% growth (OVCAR-5): 108.35%
% growth (SK-MEL-2): 108.20%
% growth (MDA-MB-231/ATCC): 98.65%
% growth (RXF 393): 103.75%
% growth (HOP-62): 106.23%
% growth (A549/ATCC): 100.87%
% growth (M14): 107.99%
% growth (TK-10): 114.88%
% growth (NCI-H522): 84.30%
% growth (HCC-2998): 100.20%
% growth (SNB-75): 94.54%
% growth (UACC-257): 106.44%
% growth (SW-620): 102.78%
% growth (HS 578T): 111.10%
% growth (NCI-H23): 103.30%
% growth (K-562; one dose 10^-5 M): 94.65%
% growth (MALME-3M): 100.39%
% growth (T-47D): 86.49%
activity on all 60 cancer cell lines tested (in words) [1]: weak activity
Mean % growth ([1]; one dose 10^-5 M, 48 h, mean over all cell lines): 100.23%
% growth (U251; one dose 10^-5 M): 101.98%
% growth (SF-539): 98.83%
% growth (MCF7): 94.30%
% growth (HCT-15): 103.06%
% growth (SK-MEL-5): 95.82%
% growth (NCI-H226): 107.48%
% growth (A498): 109.21%
% growth (SF-268): 103.53%
% growth (SF-295): 89.90%
% growth (SK-OV-3): 106.45%
% growth (EKVX): 96.85%
% growth (MDA-MB-468): 106.46%
% growth (HL-60(TB)): 82.04%
% growth (HT29; one dose 10^-5 M): 95.28%
% growth (MDA-MB-435): 98.24%
% growth (786-0): 99.34%
% growth (OVCAR-3): 113.31%
% growth (UO-31): 92.69%
% growth (LOX IMVI): 103.05%
% growth (IGROV1; one dose 10^-5 M): 96.70%
% growth (PC-3): 101.93%
% growth (OVCAR-8): 104.96%
% growth (ACHN): 102.63%
% growth (HOP-92): 100.46%
% growth (MOLT-4): 92.74%
% growth (RPMI-8226): 90.84%
% growth (CAKI-1): 93.47%
% growth (DU-145): 101.49%
% growth (CCRF-CEM): 92.49%
% growth (SK-MEL-28): 107.34%
% growth (HCT-116): 102.04%
% growth (NCI-H460): 107.05%
% growth (SNB-19): 92.80%
% growth (UACC-62): 100.93%
